Key:
NOD, NZO and DIO mice = assay: Ovarian function, serum estrogen/progesterone, follicle counts and uterine weight ratio; format: in vivo, mouse
Experimental: Using Papanicolaou's staining kit (Sigma Aldrich, Oakville, Ontario, Canada), staining of vaginal smears obtained between 09:00-10:00 AM was performed to identify the phases of the estrous cycle and to establish the individual animal cycling pattern as previously described (Koss L. G (Ed): The Papanicolaou Stain. In Diagnostic Cytology and its Histopathological Bases. 4th Edit. Koss, Leopold; Melamed and Myron R. Eds. J.B. Lippincott Williams & Wilkins (LWW), Philadelphia. 1992; Vol. 2: 1211-1221). Blood and virgin uteri were collected from nulliparous diabetic NOD females, at the proestrus, estrus and the metestrus phase, respectively, after four weeks in diabetes. Blood and uteri were also collected from age-matched, tacrolimus-treated nulliparous NOD mice immediately after completing the treatment schedule.
(§1) Fifty four NOD mice at the prediabetic and early diabetic stages were carefully selected to match the criteria of being 2 standard deviation heavier in body weight than their age-matched normoglycemic control mice and having blood glucose value of >14.9 mM/1 during the glucose tolerance test. The selected mice were 9 weeks old and were treated with 0.1 mg/kg q2d of tacrolimus (Prograf (5 mg/ml), Astellas) subcutaneously administered in 0.2 ml saline for three weeks after which animals were mated to males of the same strain (See FIG. 1). Vehicle (0.2 ml saline, s.q.) treated hyperglycemic NOD female mice were allowed two weeks in diabetes before they were mated to males of the same strain. Facial (mandibular) venous blood samples were collected from treated animals at 24 and 48 hours between injections and at pregnancy days 0.5, 2.5, 4.5, 6.5, 8.5, 10.5, 12.5, 14.5, 16.5 and 18.5 respectively following a standard procedure for facial bleed in mice (Golde et al Lab Anim (NY) 2005 34:39-43).
Twenty NZO and DIO/B6 female mice were maintained on a high fat diet consisted of 60% kcal fat, 20% kcal protein and 20% kcal carbohydrate, with a total energy mass of 5.24 kcal/gm (D12492, Research Diets Inc.; Cedarlane Laboratories, Burlington, Ontario, Canada) starting at 7 weeks of age and maintained on the diet for a total of 12 weeks of study period during which their weekly body weight changes and non-fasting blood glucose values were recorded. Mice which became obese as defined by having a Body mass index (BMI) value of 30, and tested positive for glucose intolerance were selected for an initial treatment episode with tacrolimus after being fed for four weeks with the high fat diet (See FIG. 2). Tacrolimus (Prograf (5 mg/ml), Astellas) was administered subcutaneously in a dose of 0.1 mg/kg q2d in 0.2 ml saline for three weeks to the obese and glucose intolerant NZO and DIO mice starting at the age of 10 weeks after which animals were mated to males of the same strain and pregnancy was dated from the morning of the positive detection of vaginal (copulation) plug. Facial (mandibular) venous blood samples were collected from treated animals at 24 and 48 hours between injections and at pregnancy days 0.5, 2.5, 4.5, 6.5, 8.5, 10.5, 12.5, 14.5, 16.5 and 18.5, respectively, following a standard procedure for facial bleed in mice (Golde et al. Lab Anim (NY) 2005 34:39-43). A lean cohort of control B6 and BALBc mice was fed with a regular 10 kcal % control chow diet containing the same protein content as the high fat diet with a total energy mass of 3.1 kcal/g (D12450Bi, Cedarlane, Ontario). […]

[1] = test system: type 2 diabetic NZO and DIO mice; assay: Serum testosterone and luteinizing hormone (PCOS phenotype); format: in vivo, mouse
Experimental: Hypertestosteronism (Hyperandrogenism) and low serum levels of Luteinizing hormone (LH) are among the cardinal biochemical features of established PCOS syndrome. […] Serum samples from tacrolimus-treated and saline-injected type 2 diabetic NZO and DIO mice were analyzed for their testosterone and luteinizing hormone (LH) levels in the morning of vaginal plug detection after mating and at 4.5 days later to assess the integrity of their pituitary-ovarian endocrine interactions during successful mating and at embryo implantation.
Twenty NZO and DIO/B6 female mice were maintained on a high fat diet consisted of 60% kcal fat, 20% kcal protein and 20% kcal carbohydrate, with a total energy mass of 5.24 kcal/gm (D12492, Research Diets Inc.; Cedarlane Laboratories, Burlington, Ontario, Canada) starting at 7 weeks of age and maintained on the diet for a total of 12 weeks of study period during which their weekly body weight changes and non-fasting blood glucose values were recorded. Mice which became obese as defined by having a Body mass index (BMI) value of 30, and tested positive for glucose intolerance were selected for an initial treatment episode with tacrolimus after being fed for four weeks with the high fat diet (See FIG. 2). […]

[2] = test system: diabetic and prediabetic mice; assay: Body weight in diabetic and prediabetic NOD mice; format: in vivo, mouse; settings: throughout the study period; FIG. 19A
Experimental: as §1

[3] = Likely blood concentration from the dose regimen described herein (extrapolated); format: in vivo, mouse; settings: four-fold lower than the rat value
Experimental: The smallest currently available tacrolimus dose is a 0.5 mg capsule and a single oral dose of 0.5 mg tacrolimus results in a maximal blood concentration in humans of 4.6 ng/ml (Mathew et al. Clinical Therapeutics. 2011 33(9):1105-1119). This represents over a seven-fold difference based upon the efficacious blood concentration of tacrolimus in experiments disclosed herein. A dose of 0.1 mg/kg in rats represents does of 0.2 mg/kg in mice, based upon a rat Km=6. This is a four-fold higher dose (0.2 mg/kg) than used in experiments disclosed herein. Therefore, the likely blood concentration from the dose regimen described herein would be four-fold lower (i.e. 0.15 ng/ml blood concentration) and represents an even greater exposure difference (28-fold to 38-fold) compared to existing tacrolimus dose forms for humans. Thus, experiments disclosed herein indicate that a substantially lower dose of macrolide agent such as tacrolimus than routinely administered to date may be useful in the methods of the present invention. By “substantially lower dose” or “low dose therapy” for purposes of the present invention, it is meant a dose of macrolide agent at least 2-fold lower, more preferably at least 4-fold lower, more preferably at least 10-fold lower, than the recommended starting doses of tacrolimus (Prograf) when administered for kidney and liver transplant or heart transplant.

[4] = test system: patients with type I diabetes; settings: 0.15 mg/kg BID; cited from earlier work
[5] = short-term administration, FIG. 3B

## C=CC[C@@H]1/C=C(\C)C[C@H](C)C[C@H](OC)[C@H]2O[C@@](O)(C(=O)C(=O)N3CCCC[C@H]3C(=O)O[C@H](/C(C)=C/[C@@H]3CC[C@@H](O)[C@H](OC)C3)[C@H](C)[C@@H](O)CC1=O)[C@H](C)C[C@@H]2OC [tacrolimus]
NOD, NZO and DIO mice; 0.1 mg/kg q2d s.c. for three weeks
  ovulation: enhanced ovulation
NOD, NZO and DIO mice; 0.1 mg/kg q2d s.c. for three weeks, peri- and post-implantation
  ovarian secretion of estrogen and progesterone: normalized ovarian secretion of estrogen and progesterone
NOD, NZO and DIO mice; early proliferative phase (proestrus) of estrous cycle, FIG. 3C
  uterine growth (uterine weight ratio): significant improvement in uterine growth
NOD, NZO and DIO mice; [5]
  numbers of atretic follicles: reduced numbers of atretic follicles
  numbers of secondary follicles, antral follicles and corpora lutea: increased numbers of secondary follicles (FIG. 3B: S), antral follicles (FIG. 3B: A) and corpora lutea (FIG. 3B: CL)
[1]; morning of vaginal plug and 4.5 days later
  pituitary-ovarian response and hormonal release to mating: restored normal pituitary-ovarian response and hormonal release to mating
[1]; short-term administration, high fat diet
  development of PCOS phenotype (hypertestosteronism, low serum LH): prevented the development of PCOS phenotype
[2]
  body weight gain: maintained normal body weight gain
[3]
  likely blood concentration: 0.15 ng/mL
[4]
  outcome of clinical study in type I diabetes: inconclusive

— patent publication US9427433B2, “Methods and compositions for enhancing fertility and/or inhibiting pregnancy failure and restoring glucose tolerance” (Queen's University at Kingston, priority 2011, dated 2016)
